Where “and” joins values, the source holds several entries; their conditions need not be identical. Equal entries are not always repeated. Entries after “also recorded” stand apart in the source; their conditions may differ.

A short description of data set [1]: Plasma very-long-chain fatty acids (C26:0) in X-ALD patients on lovastatin. The format is in vivo, human.
Data set [2] is described as follows: Plasma total cholesterol in X-ALD patients on lovastatin. The format is in vivo, human. Conditions: individual patients, at six months (Patients 1, 2, 3, 6, 7), four months (Patient 4), three months (Patient 5).
For data set [3] the following is noted: human, in vivo.
Data set [4] relates to conversion of pro-p21^ras to mature-p21^ras. Conditions: Sinensky et al., 1991; read-out: IC50 for inhibition of conversion of pro-p21^ras to mature-p21^ras; cited from earlier work.
The test system of data set [5] is NOS activity in rat resident macrophages. Briefly: NOS activity (L-citrulline from L-arginine) in homogenates of treated rat resident macrophages. Type of data set: cell-based. To be noted: for inhibition at 20000 µM: Rattus norvegicus, Macrophage. As for the experimental part:
NOS activity was measured directly by production of L-[2,3,4,5-^3H]citrulline from L-[2,3,4,5-^3H] arginine (Feinstein et al., 1994a). […] Assays were carried out for 30 to 40 min and the production of L-[2,3,4,5-^3H] citrulline was linear. The reactions were stopped by addition of 800 μl of ice-cold 20 mM HEPES (pH 5.5) followed by addition of 2 ml of Dowex-50W equilibrated in the same buffer. The samples were then centrifuged and the concentration of L-[^3H]citrulline was determined in the supernatant by liquid scintillation counting.

Data set [6] concerns ceramide production in rat primary astrocytes. The data set is described as follows: Degradation of sphingomyelin to ceramide (DAG kinase assay, HPTLC) in rat primary astrocytes. Type of data set: cell-based. To be noted: 10 mM NAC or 100 μM PDTC 1 h before TNF-α or IL-1β (50 ng/ml), diamide 0.5 mM or aminotriazole 5 mM. Summed up:
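About 1.0×10^6 cells were exposed to cytokines with or without antioxidants for various periods, then lipids were extracted. Sphingomyelin was separated by HPTLC and quantified by densitometry. Ceramide was phosphorylated with DAG kinase and [γ-^32P]ATP, and ceramide 1-phosphate was resolved by TLC and quantified by autoradiography/densitometry, expressed as arbitrary absorbance units or percent change.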

Setting [7] is: individual X-ALD patients, lovastatin 20 then 40 mg per day.
The mark [8] stands for this setting: IFN-γ 200 U/ml, NAC 20 mM 2 h before.
Setting [9] is: IL-1β 200 ng/ml, NAC 20 mM 2 h before.
Where [10] appears, read: LPS 0.2 μg/ml + IFN-γ 50 U/ml, NAC 20 mM 2 h before.
The mark [11] stands for this setting: LPS 0.2 μg/ml + IL-1β 25 ng/ml, NAC 20 mM 2 h before.
Where [12] appears, read: LPS 0.2 μg/ml + TNF-α 20 ng/ml, NAC 20 mM 2 h before.
Setting [13] is: LPS 1.0 μg/ml, NAC 20 mM 2 h before.
Setting [14] is: TNF-α 20 ng/ml + IFN-γ 50 U/ml, NAC 20 mM 2 h before.
Setting [15] is: TNF-α 20 ng/ml + IL-1β 25 ng/ml, NAC 20 mM 2 h before.
Where [16] appears, read: TNF-α 100 ng/ml, NAC 20 mM 2 h before.
Where [17] appears, read: no stimulus (Control), NAC 20 mM.

What is called IC50 is the concentration at which inhibition is half-maximal. Regarding `CC[C@H](C)C(=O)O[C@H]1C[C@@H](C)C=C2C=C[C@H](C)[C@H](CC[C@@H]3C[C@@H](O)CC(=O)O3)[C@H]21` [Lovastatin], the “plasma levels of very-long-chain fatty acids (C26:0), words” value in data set [1] (five patients who continued the treatment) was “remained low and within the normal range for up to six months”. Also, in data set [1] (individual X-ALD patients (one line each), lovastatin 20 mg per day two weeks, then 40 mg per day, normal controls 0.24 ± 0.13), the “Plasma Very-Long-Chain Fatty Acids AT 1 MO” value was 0.42 micrograms per milliliter and 0.37 micrograms per milliliter and 0.5 micrograms per milliliter and 0.43 micrograms per milliliter and 0.24 micrograms per milliliter and 0.3 micrograms per milliliter and 0.44 micrograms per milliliter. Further, in data set [1] (setting [7]), the “Plasma Very-Long-Chain Fatty Acids AT 2 MO” value was 0.41 micrograms per milliliter (2×) and 0.5 micrograms per milliliter and 0.42 micrograms per milliliter (2×) and 0.21 micrograms per milliliter and 0.34 micrograms per milliliter; the “Plasma Very-Long-Chain Fatty Acids AT 3 MO” value was 0.56 micrograms per milliliter and 0.3 micrograms per milliliter and 0.43 micrograms per milliliter and 0.21 micrograms per milliliter and 0.32 micrograms per milliliter and 0.36 micrograms per milliliter; the “Plasma Very-Long-Chain Fatty Acids AT 4 MO” value was 0.35 micrograms per milliliter and 0.34 micrograms per milliliter (2×) and 0.42 micrograms per milliliter and 0.22 micrograms per milliliter and 0.37 micrograms per milliliter; the “Plasma Very-Long-Chain Fatty Acids AT 5 MO” value was 0.17 micrograms per milliliter and 0.41 micrograms per milliliter (2×) and 0.26 micrograms per milliliter and 0.21 micrograms per milliliter. Also, the “Plasma Very-Long-Chain Fatty Acids AT 6 MO” value in data set [1] (setting [7]) was 0.17 micrograms per milliliter (3×) and 0.16 micrograms per milliliter and 0.21 micrograms per milliliter. Besides, the “Plasma Total Cholesterol After Treatment” value in data set [2] (after four months of treatment) turned out to be 167 mg/dL. Moreover, the “Plasma Total Cholesterol After Treatment” value in data set [2] (after six months of treatment) is 158 mg/dL and 204 mg/dL and 230 mg/dL and 183 mg/dL and 96 mg/dL. The “adverse events leading to withdrawal” value in data set [3] is “persistent diarrhea and a marked elevation of serum creatine kinase levels”. The IC50 in data set [4] is 2600 nM.
As usually defined, the inhibition is the percentage by which the read-out fell short of the control. On to `CC(=O)N[C@@H](CS)C(=O)O` [NAC, N-acetyl cysteine], for which the “L-citrulline (NOS activity)” value was determined as 13.2 ± 2.4 pmol/min/mg in data set [5] (setting [8]); 12.9 ± 2.1 pmol/min/mg in data set [5] (setting [9]); 32.3 ± 4.6 pmol/min/mg in data set [5] (setting [10]); 44.9 ± 6.1 pmol/min/mg in data set [5] (setting [11]); 19.7 ± 2.7 pmol/min/mg in data set [5] (setting [12]); 14.2 ± 2.3 pmol/min/mg in data set [5] (setting [13]). The “L-citrulline (NOS activity)” value in data set [5] (setting [14]) is on record as 36.9 ± 3.4 pmol/min/mg; in data set [5] (setting [15]), 28.2 ± 4.3 pmol/min/mg; in data set [5] (setting [16]), 12.9 ± 2.3 pmol/min/mg; in data set [5] (setting [17]) it was 10.2 ± 0.9 pmol/min/mg. For the same compound, in data set [5] (LPS 1.0 μg/ml, 24 h), the “LPS-induced NOS activity, L-citrulline formation” value is reported as “formation of L-citrulline was strongly inhibited; also recorded: inhibited LPS-induced NOS activity”. The inhibition at 20000 µM is 90% in data set [5] (setting [8]); 43% in data set [5] (setting [9]); 83% in data set [5] (setting [10]); 78% in data set [5] (setting [11]); 91% in data set [5] (setting [12]); 91% in data set [5] (setting [13]). The inhibition at 20000 µM worked out at 82% in data set [5] (setting [14]), 85% in data set [5] (setting [15]), 61% in data set [5] (setting [16]) and 25% in data set [5] (setting [17]). In data set [6], the “degradation of sphingomyelin to ceramide / ceramide production” value is “potentially blocked the decrease in sphingomyelin as well as the increase in ceramide; also recorded: blocked diamide-mediated decrease in GSH level and induction of ceramide production; also recorded: blocked the ATZ-mediated increase in ceramide production”.

The values are drawn from patent US8507219B2, “Method of treating inflammation with statins” (MUSC Foundation for Research Development, priority 1997, dated 2013).
